Legend:
[1] = Glass transition temperature (Tg) by mDSC; type: physicochemical; conditions: neat compound, Example 1
Description: MDSC was performed using a TA Instruments Q2000 differential scanning calorimeter equipped with a TA instruments Refrigerated Cooling System 90. MDSC was used to measure glass transition temperature (Tg) and melting temperature (Tm), if present. The temperature range was adjusted from 0-250° C. with a heating rate of 1.5° C./min. The scanning mode was modulated where the modulation frequency was 60 seconds and modulation amplitude 1° C.
The effect of relative humidity on the Tg was examined for the solid dispersion. The solid dispersion was exposed to humidity levels of 33%, 50% or 75% for 24 hours. Following exposure, the samples were capped in hermetically sealed DSC pans for analysis. […] As shown, the Tg dropped to 71° C. and 51° C. when exposed to 33% and 75% RH, respectively. […] The solid dispersion was packaged in packaging that maintains RH values <33% for long-term storage.

[2] = Non-sink gastric transfer dissolution test (SGF to FaSSIF); type: physicochemical
Description: The dissolution performance of the solid dispersions was tested in a non-sink dissolution test. […] During the test, samples were transferred from SGF [theoretical Cmax=2000 μgA/mL] to FaSSIF [theoretical Cmax=1000 μgA/mL].

[3] = Solubility and sink factor in dissolution media at pH 2 and 6.8; conditions: for Sink Factor (10 mg) / Sink Factor (40 mg): 900 mL media
[4] = Solubility in acetone and acetone/H2O mixtures, 30 minutes; conditions: room temperature
Description: The first measurement was conducted at room temperature over 30 minutes with mixing completed by spinning in centrifuge tubes.

[5] = Solubility in acetone/H2O combinations, equilibrated 48 hours; type: physicochemical; conditions: 48 hours at room temperature
Source text: The second measurement was completed to further evaluate acetone/H2O combinations in 1% H2O increments.

VEGF = VEGF ELISA Assay in 786-O cells; type: cell-based; conditions: Homo sapiens, 786-0; VEGF concentration in 786-O cell culture medium
Description: Each concentration was plated in duplicate. About 20 hours later, medium was removed by suction and each well was supplied with 180 μL of growth medium. About 20 μl freshly-made 10× compound stocks were added to each well. […] The EC50 was calculated by GraphPad Prism using the dose-response-inhibition (four parameter) equation. The cell-seeded plate was then subjected to CellTiter-Glo luminescence cell viability assay (Promega) by adding 50 μL of Celltiter Glo reagent into each well and shaking the plate for 8 minutes at 550 rpm (Thermomixer R, Eppendorf) then the luminescence signal immediately read in a plate reader (3 second delay, 0.5 second/well integration time, Synergy 2 multi Detection Microplate reader).

[6] = Suspension stability monitored by SGF/FaSSIF dissolution test; type: physicochemical
Description: The performance of each solid dispersion suspension was monitored at 4 and 24 hours after preparation using the SGF/FaSSIF dissolution test as the comparative metric.
The suspension stability dissolution profiles for the solid dispersion formulations held for 4 hours or 24 hours can be found in Tables 8 and 9, respectively. The dissolution tests were dosed at 2.0 mgA/mL in SGF and upon transfer into FaSSIF were reduced to 1.0 mgA/mL. It is expected that the solid dispersion suspensions can be held for up to 4 hours prior to dosing.

786-O-Hif-Luc cells = assay: Luciferase Assay; type: cell-based; conditions: luciferase activity after about 24 hours
Description: A pool of infected cells were then selected against 2 μg/mL of puromycin (P8833, Sigma) for 10 days followed by limited dilution to select single clones.
Each concentration was tested in triplicate. After about 24 hours, luciferase activity was determined using ONE-Glo Luciferase Assay Reagent (E6110, Promega) following the manufacturer's recommended procedure.

[7] = Example 6, lipid vehicle capsules
[8] = pH 2.0 (0.01N HCl) w/0.5% Tween 80
[9] = pH 2.0 (0.01N HCl) w/1% Tween 80
[10] = pH 6.8 (50 mM NaH2PO4) w/0.5% CTAB
[11] = pH 6.8 (50 mM NaH2PO4) w/0.5% SLS
[12] = pH 6.8 (50 mM NaH2PO4) w/0.5% Tween 80
[13] = pH 6.8 (50 mM NaH2PO4) w/1% CTAB
[14] = pH 6.8 (50 mM NaH2PO4) w/1% SLS
[15] = pH 6.8 (50 mM NaH2PO4) w/1% Tween 80

CS(=O)(=O)c1ccc(Oc2cc(F)cc(C#N)c2)c2c1[C@H](O)[C@H](F)[C@@H]2F [compound of Formula (I), 3-(((1S,2S,3R)-2,3-difluoro-1-hydroxy-7-(methylsulfonyl)-2,3-dihydro-1H-inden-4-yl)oxy)-5-fluorobenzonitrile]
glass transition temperature (Tg) [1]: 79.9 °C | AUC Enhancement ([2]; Example 2, AUC solid dispersion/AUC crystalline compound of Formula (I)): 1 | Cmax GB ([2]; Example 2, SGF, 30 minutes): 12 μgA/mL | Cmax FaSSIF ([2]; Example 2, after transfer to FaSSIF): 16 μgA/mL | AUC FaSSIF ([2]; Example 2, post gastric transfer): 2600 μgA/mL*min | Cmax GB ([2]; Example 6, capsules, 5 wt. % compound in lipid vehicle): 14 μgA/mL | AUC FaSSIF [2, 7]: 3021 μgA/mL*min | Cmax FaSSIF [2, 7]: 19 μgA/mL | AUC Enhancement ([2]; Example 6, versus bulk crystalline drug): 1.0 | solubility ([3]; pH 2): 100 µg/mL | Sink Factor (10 mg) ([3]; pH 2.0 (0.01N HCl) w/0.5% CTAB): 5.4 | Sink Factor (40 mg) ([3]; pH 2.0 (0.01N HCl) w/0.5% CTAB): 1.4 | Sink Factor (10 mg) ([3]; pH 2.0 (0.01N HCl) w/0.5% SLS): 3.6 | Sink Factor (40 mg) ([3]; pH 2.0 (0.01N HCl) w/0.5% SLS): 0.9 | Sink Factor (10 mg) [3, 8]: 1.8 | Sink Factor (40 mg) [3, 8]: 0.5 | Sink Factor (10 mg) ([3]; pH 2.0 (0.01N HCl) w/1% CTAB): 9 | Sink Factor (40 mg) ([3]; pH 2.0 (0.01N HCl) w/1% CTAB): 2.3 | Sink Factor (10 mg) ([3]; pH 2.0 (0.01N HCl) w/1% SLS): 6.3 | Sink Factor (40 mg) ([3]; pH 2.0 (0.01N HCl) w/1% SLS): 1.6 | Sink Factor (10 mg) [3, 9]: 1.8 | Sink Factor (40 mg) [3, 9]: 0.5 | Sink Factor (10 mg) ([3]; pH 2.0 (0.01N HCl)): 0.9 | Sink Factor (40 mg) ([3]; pH 2.0 (0.01N HCl)): 0.2 | solubility ([3]; pH 2, aqueous with cosolvent or surfactant or cyclodextrin, thermodynamic from solid, Solubility): 60 µg/mL | solubility ([3]; pH 2, aqueous with cosolvent or surfactant or cyclodextrin, thermodynamic from solid, Solubility, pH 2.0 (0.01N HCl) w/0.5% SLS): 40 µg/mL | solubility ([3]; pH 2, aqueous with cosolvent or surfactant or cyclodextrin, thermodynamic from solid, Solubility, pH 2.0 (0.01N HCl) w/0.5% Tween 80): 20 µg/mL | solubility ([3]; pH 2, aqueous with cosolvent or surfactant or cyclodextrin, thermodynamic from solid, Solubility, pH 2.0 (0.01N HCl) w/1% SLS): 70 µg/mL | solubility ([3]; pH 2, aqueous with cosolvent or surfactant or cyclodextrin, thermodynamic from solid, Solubility, pH 2.0 (0.01N HCl) w/1% Tween 80): 20 µg/mL | solubility ([3]; pH 2, simulated gastric fluid, thermodynamic from solid, Solubility, pH 2.0 (0.01N HCl)): 10 µg/mL | Sink Factor (10 mg) [3, 10]: 6.3 | Sink Factor (40 mg) [3, 10]: 1.6 | Sink Factor (10 mg) [3, 11]: 3.6 | Sink Factor (40 mg) [3, 11]: 0.9 | Sink Factor (10 mg) [3, 12]: 1.8 | Sink Factor (40 mg) [3, 12]: 0.5 | Sink Factor (10 mg) [3, 13]: 9.9 | Sink Factor (40 mg) [3, 13]: 2.5 | Sink Factor (10 mg) [3, 14]: 6.3 | Sink Factor (40 mg) [3, 14]: 1.6 | Sink Factor (10 mg) [3, 15]: 1.8 | Sink Factor (40 mg) [3, 15]: 0.5 | Sink Factor (10 mg) ([3]; pH 6.8 (50 mM NaH2PO4)): 0.9 | Sink Factor (40 mg) ([3]; pH 6.8 (50 mM NaH2PO4)): 0.2 | solubility ([3]; pH 6.8, aqueous buffer, thermodynamic from solid, Solubility, pH 6.8 (50 mM NaH2PO4)): 10 µg/mL | solubility ([3]; pH 6.8, aqueous with cosolvent or surfactant or cyclodextrin, thermodynamic from solid, Solubility, pH 6.8 (50 mM NaH2PO4) w/0.5% CTAB): 70 µg/mL | solubility ([3]; pH 6.8, aqueous with cosolvent or surfactant or cyclodextrin, thermodynamic from solid, Solubility, pH 6.8 (50 mM NaH2PO4) w/0.5% SLS): 40 µg/mL | solubility ([3]; pH 6.8, aqueous with cosolvent or surfactant or cyclodextrin, thermodynamic from solid, Solubility, pH 6.8 (50 mM NaH2PO4) w/0.5% Tween 80): 20 µg/mL | solubility ([3]; pH 6.8, aqueous with cosolvent or surfactant or cyclodextrin, thermodynamic from solid, Solubility, pH 6.8 (50 mM NaH2PO4) w/1% CTAB): 110 µg/mL | solubility ([3]; pH 6.8, aqueous with cosolvent or surfactant or cyclodextrin, thermodynamic from solid, Solubility, pH 6.8 (50 mM NaH2PO4) w/1% SLS): 70 µg/mL | solubility ([3]; pH 6.8, aqueous with cosolvent or surfactant or cyclodextrin, thermodynamic from solid, Solubility, pH 6.8 (50 mM NaH2PO4) w/1% Tween 80): 20 µg/mL | solubility ([4]; 87.5/12.5% Acetone/H2O): 5.8 wt. % | solubility ([4]; 90/10% Acetone/H2O): 7.1 wt. % | solubility ([4]; 92.5/7.5% Acetone/H2O): 6.7 wt. % | solubility ([4]; 95/5% Acetone/H2O): 7.5 wt. % | solubility ([4]; 97.5/2.5% Acetone/H2O): 7.3 wt. % | solubility ([4]; 100% Acetone): 6.2 wt. % | solubility ([5]; 95/5% Acetone/H2O): 6.6 wt. % | solubility ([5]; 96/4% Acetone/H2O): 6.3 wt. % | solubility ([5]; 97/3% Acetone/H2O): 6.7 wt. % | solubility ([5]; 98/2% Acetone/H2O): 6.6 wt. % | solubility ([5]; 99/1% Acetone/H2O): 6.0 wt. % | solubility ([5]; 100% Acetone): 6.0 wt. % | EC50 (VEGF): < 50 nM | Cmax GB ([6]; 10 mgA/mL suspension in 1 wt. % 1:1 methyl-cellulose:Tween 80 held 4 hours): 18.3 μgA/mL | Cmax GB ([6]; 10 mgA/mL suspension in 1 wt. % 1:1 methyl-cellulose:Tween 80 held 24 hours): 35.8 μgA/mL | AUC Enhancement ([6]; suspension held 4 hours): 1.0 | AUC FaSSIF ([6]; suspension held 4 hours): 2600 μgA/mL*min | Cmax FaSSIF ([6]; suspension held 4 hours): 15.5 μgA/mL | AUC Enhancement ([6]; suspension held 24 hours): 1.0 | AUC FaSSIF ([6]; suspension held 24 hours): 5600 μgA/mL*min | Cmax FaSSIF ([6]; suspension held 24 hours): 33.0 μgA/mL | EC50 (786-O-Hif-Luc cells): < 50 nM
